Laboratory results as given in ChEMBL document CHEMBL4831541, “Antibiotic Conjugates with an Artificial MECAM-Based Siderophore Are Potent Agents against Gram-Positive and Gram-Negative Bacterial Pathogens” (2021).
Converted amounts (≈) assume the structure as drawn. Each block holds one compound with its values, some of them ahead of it. The source made the active and inactive calls. The rule behind the calls is not given here.

Legend:
[1] = test system: Escherichia coli; test: Recovery of growth in Escherichia coli BW25113 delta entA assessed as reversal of growth at 10 uM in presence of 0.1 uM iron(III) chloride hexahydrate by growth recovery assay; format: functional, organism-based
[2] = test system: Staphylococcus aureus; test: Antibacterial activity against Staphylococcus aureus DSM11822 assessed as growth inhibition by measuring minimal concentration at OD600 by visual inspection with iron-limited media incubated for 24 hrs; format: functional
[3] = test system: Acinetobacter baumannii; test: Antibacterial activity against Acinetobacter baumannii DSM30007 assessed as growth inhibition by measuring minimal concentration at OD600 by visual inspection with iron-limited media incubated for 24 hrs; format: functional
[4] = test system: Escherichia coli; test: Antibacterial activity against Escherichia coli BW25113 assessed as growth inhibition by measuring minimal concentration at OD600 by visual inspection with iron-limited media incubated for 24 hrs; format: functional
[5] = test system: Enterococcus faecium; test: Antibacterial activity against Enterococcus faecium DSM20477 assessed as growth inhibition by measuring minimal concentration at OD600 by visual inspection with iron-limited media incubated for 24 hrs; format: functional
[6] = test system: Escherichia coli; test: Antibacterial activity against Escherichia coli delta fepA delta cirA delta fiu assessed as growth inhibition by measuring minimal concentration at OD600 by visual inspection with iron-limited media incubated for 24 hrs; format: functional
[7] = test system: Escherichia coli; test: Antibacterial activity against Escherichia coli delta cirA delta fiu assessed as growth inhibition by measuring minimal concentration at OD600 by visual inspection with iron-limited media incubated for 24 hrs; format: functional
[8] = test system: Escherichia coli; test: Antibacterial activity against Escherichia coli delta fepA assessed as growth inhibition by measuring minimal concentration at OD600 by visual inspection with iron-limited media incubated for 24 hrs; format: functional
[9] = test system: Escherichia coli; test: Antibacterial activity against Escherichia coli delta cirA assessed as growth inhibition by measuring minimal concentration at OD600 by visual inspection with iron-limited media incubated for 24 hrs; format: functional
[10] = test system: Escherichia coli; test: Antibacterial activity against Escherichia coli delta exbB assessed as growth inhibition by measuring minimal concentration at OD600 by visual inspection with iron-limited media incubated for 24 hrs; format: functional
[11] = test system: Escherichia coli; test: Antibacterial activity against wild type Escherichia coli BW25113 assessed as growth inhibition by measuring minimal concentration at OD600 by visual inspection with iron-limited media incubated for 24 hrs; format: functional
[12] = test system: Escherichia coli; test: Antibacterial activity against Escherichia coli delta fepB assessed as growth inhibition by measuring minimal concentration at OD600 by visual inspection with iron-limited media incubated for 24 hrs; format: functional
[13] = test system: Escherichia coli; test: Antibacterial activity against Escherichia coli delta fiu assessed as growth inhibition by measuring minimal concentration at OD600 by visual inspection with iron-limited media incubated for 24 hrs; format: functional
[14] = test system: Escherichia coli; test: Antibacterial activity against Escherichia coli delta tonB assessed as growth inhibition by measuring minimal concentration at OD600 by visual inspection with iron-limited media incubated for 24 hrs; format: functional
[15] = test system: Escherichia coli; test: Antibacterial activity against Escherichia coli delta fepA delta cirA assessed as growth inhibition by measuring minimal concentration at OD600 by visual inspection with iron-limited media incubated for 24 hrs; format: functional
[16] = test system: Escherichia coli; test: Antibacterial activity against Escherichia coli delta fepD assessed as growth inhibition by measuring minimal concentration at OD600 by visual inspection with iron-limited media incubated for 24 hrs; format: functional
[17] = test system: Escherichia coli; test: Antibacterial activity against Escherichia coli delta […] delta fiu assessed as growth inhibition by measuring minimal concentration at OD600 by visual inspection with iron-limited media incubated for 24 hrs; format: functional
[18] = test system: Escherichia coli; test: Recovery of growth in Escherichia coli BW25113 delta entA delta fepA double knock out assessed as reversal of growth at 10 uM in presence of 0.1 uM iron(III) chloride hexahydrate measured after reintroduction of plasmid expressing full length FepA by growth recovery assay; format: functional, organism-based
[19] = test system: Escherichia coli; test: Recovery of growth in Escherichia coli BW25113 delta entA delta fepA double knock out assessed as reversal of growth at 10 uM in presence of 0.1 uM iron(III) chloride hexahydrate by growth recovery assay; format: functional, organism-based

Compound: O=C(NCc1cc(CNC(=O)c2cccc(O)c2O)cc(CNC(=O)c2cccc(O)c2O)c1)c1cccc(O)c1O
- Activity [1]: Active

Compound: CC(=O)Oc1cccc(C(=O)NCc2cc(CNC(=O)c3cccc(OC(C)=O)c3OC(C)=O)cc(CNC(=O)c3cccc(OC(C)=O)c3OC(C)=O)c2)c1OC(C)=O
- Activity [1]: Active

Compound: CC(=O)Oc1cccc(C(=O)NCc2cc(CNC(=O)c3cccc(OC(C)=O)c3OC(C)=O)c(CNC(=O)c3cccc(OC(C)=O)c3OC(C)=O)c([N+](=O)[O-])c2)c1OC(C)=O
- Activity [1]: Active

Compound: CC(=O)Oc1cccc(C(=O)NCc2cc(CNC(=O)c3cccc(OC(C)=O)c3OC(C)=O)c([N+](=O)[O-])c(CNC(=O)c3cccc(OC(C)=O)c3OC(C)=O)c2)c1OC(C)=O
- Activity [18]: Active
- Activity [1]: Active
- Activity [19]: inactive

Second part, the compound after the results:

- MIC [2]: 0.36 µM (≈ 0.583 µg/mL)
- MIC [3]: > 39 µM
- MIC [4]: > 64 µM
- MIC [5]: 0.62 µM (≈ 1 µg/mL)
Compound: CCCCCCCCCC(=O)N[C@@H](Cc1c[nH]c2ccccc12)C(=O)N[C@H](CC(N)=O)C(=O)N[C@@H](CC(=O)O)C(=O)N[C@@H]1C(=O)NCC(=O)N[C@@H](CCCN)C(=O)N[C@@H](CC(=O)O)C(=O)N[C@H](C)C(=O)N[C@@H](CC(=O)O)C(=O)NCC(=O)N[C@H](CO)C(=O)N[C@@H]([C@H](C)CC(=O)O)C(=O)N[C@@H](CC(=O)c2ccccc2N)C(=O)O[C@@H]1C

- MIC [2]: > 85 µM
- MIC [6]: > 21 µM
- MIC [7]: 21 µM (≈ 15.8 µg/mL)
- MIC [8]: 0.17 µM (≈ 0.128 µg/mL)
- MIC [9]: 0.66 µM (≈ 0.496 µg/mL)
- MIC [3]: 0.053 µM (≈ 0.0399 µg/mL)
- MIC [10]: 5.3 µM (≈ 3.99 µg/mL)
- MIC [4]: 0.042 µM (≈ 0.0316 µg/mL)
- MIC [11]: 33 µM (≈ 24.8 µg/mL)
- MIC [12]: 0.083 µM (≈ 0.0624 µg/mL)
- MIC [5]: > 85 µM
- MIC [13]: 0.66 µM (≈ 0.496 µg/mL)
- MIC [14]: > 21 µM
- MIC [15]: 0.17 µM (≈ 0.128 µg/mL)
- MIC [16]: 0.083 µM (≈ 0.0624 µg/mL)
- MIC [17]: 0.66 µM (≈ 0.496 µg/mL)
Compound: CC(C)(O/N=C(\C(=O)N[C@@H]1C(=O)N2C(C(=O)[O-])=C(C[N+]3(CCNC(=O)c4ccc(O)c(O)c4Cl)CCCC3)CS[C@H]12)c1csc(N)n1)C(=O)O [CEFIDEROCOL]

- MIC [2]: > 175 µM
- MIC [3]: > 175 µM
- MIC [4]: 18 µM (≈ 6.58 µg/mL)
- MIC [5]: 1.3 µM (≈ 0.475 µg/mL)
Compound: CC1(C)S[C@@H]2[C@H](NC(=O)[C@H](N)c3ccc(O)cc3)C(=O)N2[C@H]1C(=O)O [AMOXICILLIN]

- MIC [2]: > 183 µM
- MIC [6]: 46 µM (≈ 16.1 µg/mL)
- MIC [7]: 46 µM (≈ 16.1 µg/mL)
- MIC [8]: 46 µM (≈ 16.1 µg/mL)
- MIC [9]: 46 µM (≈ 16.1 µg/mL)
- MIC [3]: > 183 µM
- MIC [10]: 46 µM (≈ 16.1 µg/mL)
- MIC [4]: 19 µM (≈ 6.64 µg/mL)
- MIC [11]: 46 µM (≈ 16.1 µg/mL)
- MIC [12]: 46 µM (≈ 16.1 µg/mL)
- MIC [5]: 2.7 µM (≈ 0.943 µg/mL)
- MIC [13]: 46 µM (≈ 16.1 µg/mL)
- MIC [14]: 46 µM (≈ 16.1 µg/mL)
- MIC [15]: 46 µM (≈ 16.1 µg/mL)
- MIC [16]: 46 µM (≈ 16.1 µg/mL)
- MIC [17]: 46 µM (≈ 16.1 µg/mL)
Compound: CC1(C)S[C@@H]2[C@H](NC(=O)[C@H](N)c3ccccc3)C(=O)N2[C@H]1C(=O)O [AMPICILLIN]
